Reference: patent publication US20040258676A1, “Stimulation of the activity of an isoform of lysyl oxidase for combating against some pathologies due to an incomplete, absent or disorganized elastogenesis” (COLETICA, priority 2003, published 2004)

Experiments:
[1] = test system: elastin (Eln) mRNA; experiment: Screening of actives by qualitative RT-PCR, elastin mRNA in aged adult fibroblasts (Example 9); assay type: cell-based; settings: actives at 1% (v/v), 24 hours, fibroblasts of normal human skin of aged adults; compared to actin and to negative control
Protocol: (§1) The actives were tested at 1% (v/v) on fibroblasts of normal human skin (originating from healthy <<aged >> adults). The culture was carried out, e.g. in a monolayer on 24-well culture plates, in a defined medium without serum (Fibroblast Basal Medium, Promocell, Germany). The cells were sown, e.g. at 40,000 per cm^2. At the confluence, the cells are placed in contact with the actives advantageously for 24 hours. In parallel, a non-treated control (medium alone) and three positive controls (TGF-β at 1 ng/ml, IL-1α at 50 pg/ml and Phytokine® (Coletica, France) at 2%(v/v)) are advantageously carried out, e.g. on the same culture plate. The TGF-β at 1 ng/ml and the IL-1α at 50 pg/ml were tested beforehand and the stimulation of the synthesis of elastin mRNA induced by these two cytokines at these concentrations was verified by an analysis of the mRNAs, e.g. by quantitative RT-PCR (×10 for TGF-β and x6 for IL-1 alpha). […] The total RNAs are extracted e.g. with the aid of an extraction kit of 96 wells on silica columns and were determined on a 96-well spectrophotometer at 260 nm (purity indicator: protein determination at 280 nm). […] The photographs of the gels were analyzed by image analysis and quantification of the intensity of the bands (Phoretix1D Quantifier, Non Linear Dynamics Ltd, USA). […]

[2] = test system: LOX mRNA; experiment: Screening of actives by qualitative RT-PCR, LOX mRNA in aged adult fibroblasts (Example 9); assay type: cell-based; settings: actives at 1% (v/v), 24 hours, fibroblasts of normal human skin of aged adults; compared to actin and to negative control
Protocol: as §1

[3] = test system: elastin mRNA; experiment: Verification of positive controls: stimulation of the synthesis of elastin mRNA by quantitative RT-PCR; assay type: cell-based, human; settings: TGF-β at 1 ng/ml
Protocol: The TGF-β at 1 ng/ml and the IL-1α at 50 pg/ml were tested beforehand and the stimulation of the synthesis of elastin mRNA induced by these two cytokines at these concentrations was verified by an analysis of the mRNAs, e.g. by quantitative RT-PCR (×10 for TGF-β and x6 for IL-1 alpha). After the time of placing the actives in contact with the cells, e.g. 24 hours, the media are removed and the cells are preserved e.g. by dry freezing at −80° C. after a rinsing in phosphate buffer pH 7.4. The total RNAs are extracted e.g. with the aid of an extraction kit of 96 wells on silica columns and were determined on a 96-well spectrophotometer at 260 nm (purity indicator: protein determination at 280 nm). […]
The actives were tested at 1% (v/v) on human scar tissue skin fibroblasts (surgical recovery of hypertropic scar after caesarean) in premature passage (lower than 5 passages). […] The TGF-β at 1 ng/ml and the IL-1α at 50 pg/ml were tested beforehand and the stimulation of the synthesis of elastin mRNA induced by these two cytokines at these concentrations was verified by an analysis of the mRNAs, e.g. by quantitative RT-PCR (x10 for TGF-β and x6 for IL-1 alpha). […] The total RNAs are extracted e.g. with the aid of an extraction kit of 96 wells on silica columns and were determined on a 96-well spectrophotometer at 260 nm (purity indicator: protein determination at 280 nm). […]

Compound	Eln Control multiplied by: [1]	LOX Control multiplied by: [2]	stimulation of the synthesis of elastin mRNA [3] [x]
OC[C@@H](O)[C@H](O)[C@@H](O)CO [Xylitol]	0.27	3.10	
TGF-β			10
